Earlier results as cited in patent publication US20200114015A1, “Novel Alpha-Hydroxy Carboxylic Acid And Derivatives And Other GRAS- Based Prodrugs Of Gamma-Hydroxybutyrate (GHB) And Uses Thereof” (priority 2017, published 2020).

Conditions: GHB marketed as Xyrem

**Q.** With O=C(O)CCCO [GHB, gamma-hydroxybutyrate] as the molecule, how does the bioavailability read?
**A.** ~25%

**Q.** What about the half life of the same molecule?
**A.** 30 to 60 min
